Two compounds from US12543767B2, “Oral supplements containing enriched phenolic compound extracts combined with organic acid sodium salts, creatines and/or creatine salts” (Phenolics, LLC, priority 2021, dated 2026) can be followed below.

One series deals with men. The experiment in a line: Clinical study: fatigue test, 50 maximal unilateral isokinetic leg extensions, before and after 28 days of supplementation. It counts as in vivo. As to conditions: for Peak Torque: mean of first three repetitions. On the procedure:
The supplements were designed to be as similar as possible in volume, color, and taste, and included 5.0 g of phosphocreatine disodium salts plus 200 mg of blueberry extract in the supplements for the Phosphocreatine/Blueberry Group, 3.0 g of creatine monohydrate for the Creatine Group, and microcrystalline cellulose for the placebo group. The bulk powder mixtures were sieved through a 60-mesh sieve to ensure inform particle size and to get rid of the agglomerates. They were then blended for one hour using an Erweka V-mixer (Model AR 403, Erweka America Inc., Edison, NJ) prior to packaging. Homogeneity of mixing was visually confirmed with the coloring agents used. Blended powders were accurately weighed (mass±1%) into individual foil lined pouches using a calibrated balance (Model SX 410, Denver Instruments, Bohemia, NY) and heat sealed. Five quality control samples were randomly selected from the packaged batch throughout the packaging process to ensure even distribution of contents, verified by mass for all samples and for creatine content in non-placebo samples by HPLC analysis.
The study was implemented as a double-blind, placebo-controlled, parallel design study. The study included a familiarization visit with each of the participants, a pre-supplementation test visit, 28 days of daily supplementation, and a post-supplementation test visit. During the testing visits, the subjects performed the fatigue test of Thorstensson and Karlsson which consisted of 50 maximal, unilateral, concentric, isokinetic leg extensions of the left leg at 180°·s^−1.
After completion of the pre-supplementation test visit, the participants were randomly assigned to one of the three groups described above. The subjects were provided with 28 days of individually packaged packets of powder of their assigned supplement and were instructed to mix the contents of the packet with 8 oz of water and drink it immediately after mixing. The subjects were instructed to maintain their usual exercise and dietary habits throughout the study. Each subject completed a 3-day dietary recall form and a 7-day exercise recall form prior to the pre-supplementation testing visit and prior to the post-supplementation testing visit to determine if there were changes in total caloric and macronutrient intake as well as exercise time during the supplementation period.
Before and after the 28 day supplementation regimens, peak torque, average power and percent decline for peak torque and average power were assessed from a fatigue test consisting of 50 maximal, unilateral, isokinetic leg extensions at 180°·s^−1.
During both pre-supplementation and post-supplementation test visits, peak torque and average power were assessed during the fatigue tests. Peak torque and average power were defined as the mean values from the first three repetitions of the fatigue test. Average power was operationally defined in the as the time averaged, integrated area under the isokinetic torque curve. To calculate the average power, the voltage-time relationships were converted to the isokinetic torque curve by converting the voltage to torque in N·m based on a regression equation. Integration of the area under the torque curve was accomplished using a custom LabVIEW program (National Instrument, Austin, TX, USA) and the average power was then calculated by dividing the integrated area under the torque curve by the time for each isokinetic repetition.

Series [1] concerns CaCo2 cell model for intestinal barrier. In words: Diffusion of extract polyphenols/flavonoids through confluent CaCo2 monolayer in side by side diffusion cells. It counts as in vitro ADME. As to conditions: 10 mM alpha, beta or gamma cyclodextrin with blueberry polyphenol solution ~1 mg/ml.
The mark [2] stands for this setting: pre- to post-supplement, 28 days, monohydrate.

The structures appear in SMILES notation. Where “and” joins values, the source holds several entries; their conditions need not be identical. Equal entries are not always repeated.

As for `CN(CC(=O)O)C(=N)N.O` [Creatine Group, creatine monohydrate], in the series with men (Post-Supplement (28 days)), the “Average Power” value was found to be 159.78 ± 31.20 Watts and the “Peak Torque” value was 111.97 ± 24.50. In the series on men (Pre-Supplement), the “Average Power” value came out at 143.42 ± 33.84 Watts and the “Peak Torque” value is listed as 99.95 ± 22.50. Moreover, in the series on men (setting [2]), the “Average Power Change (%)” value was 10.22% and 10.22 ± 13.62%; the “Peak Torque Change (%)” value is 10.47% and 10.47 ± 11.03%.

As for `OC[C@H]1O[C@@H]2O[C@H]3[C@H](O)[C@@H](O)[C@@H](O[C@H]4[C@H](O)[C@@H](O)[C@@H](O[C@H]5[C@H](O)[C@@H](O)[C@@H](O[C@H]6[C@H](O)[C@@H](O)[C@@H](O[C@H]7[C@H](O)[C@@H](O)[C@@H](O[C@H]8[C@H](O)[C@@H](O)[C@@H](O[C@H]1[C@H](O)[C@H]2O)O[C@@H]8CO)O[C@@H]7CO)O[C@@H]6CO)O[C@@H]5CO)O[C@@H]4CO)O[C@@H]3CO` [beta cyclodextrin], the “effect of cyclodextrin on permeation of blueberry phenolics thru the CaCo2 membrane” value in series [1] is given as “best effect on increasing the permeation”.
